Values of other authors as cited in US4386074A, “LRF Antagonists” (The Salk Institute for Biological Studies, priority 1981, dated 1983).
[ ]: non-standard residue; d: D form. pGlu = O=C1CC[C@@H](C(=O)O)N1

Tested on: release of LH and other gonadotropins by the pituitary gland
Conditions: D-Ala6 versus Gly6 des-His2 peptide

[pGlu]WSY[dA]LRPG-NH2
potency as inhibitor of the release of gonadotropins relative to the same peptide with Gly in the 6-position: 4 times
